Experimental data: ChEMBL document CHEMBL1201862, “PubChem BioAssay data set” (2004)
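Step 1: Grow cells in 96-well plates. Step 2: Expose to compound for 48 hours at 5 concentrations. Step 3: Interpolate endpoints linearly; if unreached, use highest concentration. Abbreviation: GI50, concentration required for 50% inhibition of growth.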 The source made the active and inactive calls. No stated cut-off is given here; in the data, active = GI50 up to about 1.1 µM and inactive = higher.

What was measured:
Experiment in all cases: growth of human tumour cells (NCI), 48 h
CAKI-1 = tested on: CAKI-1
CCRF-CEM = tested on: CCRF-CEM
HCC 2998 = tested on: HCC 2998
HOP-62 = tested on: HOP-62
Hs-578T = tested on: Hs-578T
KM12 = tested on: KM12
LOX IMVI = tested on: LOX IMVI
M14 = tested on: M14
MOLT-4 = tested on: MOLT-4
Malme-3M = tested on: Malme-3M
NCI-H23 = tested on: NCI-H23
NCI-H522 = tested on: NCI-H522
OVCAR-3 = tested on: OVCAR-3
OVCAR-8 = tested on: OVCAR-8
RPMI-8226 = tested on: RPMI-8226
SK-MEL-2 = tested on: SK-MEL-2
SK-MEL-5 = tested on: SK-MEL-5
SNB-19 = tested on: SNB-19
T47D = tested on: T47D
UACC-257 = tested on: UACC-257

| Compound | GI50 (CAKI-1) | GI50 (CCRF-CEM) | GI50 (HCC 2998) | GI50 (HOP-62) | GI50 (Hs-578T) | GI50 (KM12) | GI50 (LOX IMVI) | GI50 (M14) | GI50 (MOLT-4) | GI50 (Malme-3M) | GI50 (NCI-H23) | GI50 (NCI-H522) | GI50 (OVCAR-3) | GI50 (OVCAR-8) | GI50 (RPMI-8226) | GI50 (SK-MEL-2) | GI50 (SK-MEL-5) | GI50 (SNB-19) | GI50 (T47D) | GI50 (UACC-257) |
| --- | --- | --- | --- | --- | --- | --- | --- | --- | --- | --- | --- | --- | --- | --- | --- | --- | --- | --- | --- | --- |
| O=[N+]([O-])/C(C(Cl)=C(Cl)Cl)=C(/Sc1ccccc1)N1CCCCC1 | > 22.9 µM (inactive) | 4.74 µM (inactive) | > 100 µM (inactive) | > 59.3 µM (inactive) | 67 µM (inactive) | > 100 µM (inactive) | 8.45 µM (inactive) | > 69.2 µM (inactive) | 3.52 µM (inactive) | 19.8 µM (inactive) | > 100 µM (inactive) | 13.6 µM (inactive) | > 63.7 µM (inactive) | > 58.2 µM (inactive) | > 100 µM (inactive) | 2.44 µM (inactive) | 24.5 µM (inactive) | > 58.7 µM (inactive) | 11.9 µM (inactive) | 54.2 µM (inactive) |
| CC(=O)c1sc2c(c1OC(=O)c1ccc(Cl)cc1)c(=O)n(-c1ccccc1)c(=S)n2-c1ccccc1 | 3.39 µM (inactive) | 1.06 µM (active) | 19.1 µM (inactive) | 3.85 µM (inactive) | 2.08 µM (inactive) | 10.9 µM (inactive) | 2.32 µM (inactive) | 1.18 µM (inactive) | 1.56 µM (inactive) | 1.94 µM (inactive) | 17.5 µM (inactive) | 1.53 µM (inactive) | 14.2 µM (inactive) | 3.48 µM (inactive) | 1.21 µM (inactive) | 1.27 µM (inactive) | 2 µM (inactive) | 3.56 µM (inactive) | 12.2 µM (inactive) | 5.19 µM (inactive) |
| CCN1C(=O)CS/C1=N\NC(=O)CSc1nc2ccccc2c(=O)n1CC | > 100 µM (inactive) | > 100 µM (inactive) | > 100 µM (inactive) | > 100 µM (inactive) | > 100 µM (inactive) | > 100 µM (inactive) | > 100 µM (inactive) | > 100 µM (inactive) | > 100 µM (inactive) | > 100 µM (inactive) | > 100 µM (inactive) | > 100 µM (inactive) | > 100 µM (inactive) | > 100 µM (inactive) | > 100 µM (inactive) | > 100 µM (inactive) | > 100 µM (inactive) | > 100 µM (inactive) | > 100 µM (inactive) | > 100 µM (inactive) |
| COc1ccc(C2OC(c3ccncc3)=NN2C)cc1F (stereo not given) | 51.4 µM (inactive) | > 100 µM (inactive) | > 100 µM (inactive) | > 100 µM (inactive) | > 100 µM (inactive) | > 100 µM (inactive) | > 100 µM (inactive) | > 100 µM (inactive) | 41.9 µM (inactive) | > 100 µM (inactive) | > 100 µM (inactive) | > 100 µM (inactive) | > 100 µM (inactive) | > 100 µM (inactive) | > 100 µM (inactive) | > 100 µM (inactive) | > 100 µM (inactive) | > 100 µM (inactive) | > 100 µM (inactive) | > 100 µM (inactive) |
| COc1cc(NS(C)(=O)=O)ccc1Nc1c2ccccc2nc2c1[nH]c1ccc(NC3OC(CO)C(O)C(O)C3O)cc12 (stereo not given) | < 0.01 µM (active) | < 0.0132 µM (active) | 0.169 µM (active) | < 0.0163 µM (active) | 0.518 µM (active) | 0.207 µM (active) | < 0.0154 µM (active) | 0.0399 µM (active) | < 0.01 µM (active) | 0.0468 µM (active) | 0.0215 µM (active) | 0.0923 µM (active) | 0.538 µM (active) | 0.0504 µM (active) | 0.0973 µM (active) | 0.269 µM (active) | 0.0859 µM (active) | 0.0242 µM (active) | 0.0327 µM (active) | 0.74 µM (active) |
| CCCCC/C(=N\c1[nH]nnc1C(N)=O)OCC | > 100 µM (inactive) | > 100 µM (inactive) | > 100 µM (inactive) | > 100 µM (inactive) | > 100 µM (inactive) | > 100 µM (inactive) | > 100 µM (inactive) | > 100 µM (inactive) | > 100 µM (inactive) | > 100 µM (inactive) | > 100 µM (inactive) | > 100 µM (inactive) | > 100 µM (inactive) | > 100 µM (inactive) | > 100 µM (inactive) | > 100 µM (inactive) | > 100 µM (inactive) | > 100 µM (inactive) | > 100 µM (inactive) | > 100 µM (inactive) |
